# Experimental data: patent US10851065B2 (Eisai R&D Management Co., Ltd., priority 2015, dated 2020)
# Experiments:
# [1] = tested on: MCF7-WT cells (MCF7 ER-alpha wildtype); assay: In vitro proliferation (viability) assay, CellTiter-Glo, MCF7-WT cells; format: cell-based; conditions: Homo sapiens; MCF7-WT cells, 6 days, CTG vs day 0; mean ± SD-type spread (n); read-out: GI50 WT
# Method: (§1) MCF7 BUS cells (Coser, et al., (2003) PNAS 100(24): 13994-13999) were maintained in Dulbecco's Modified Eagle Medium supplemented with 10% FBS, 4 mM L-glutamine and 1× non-essential amino acids. Lenti-X 293T cells (Clontech, Cat #632180) were routinely cultured in Dulbecco's Modified Eagle Medium supplemented with 10% FBS.
# (§2) The QuikChange II XL Site-Directed Mutagenesis Kit (Agilent Technologies, Cat #200523) was used to generate Y537S, Y537C, Y537N and D538G mutations within the ERα exon 8. Wild-type ESR1 cDNA (GeneCopoeia Inc., Cat #GC-A0322, accession no. NM 000125) was used as a template with the following mutagenesis primers (where the underlined nucleotides represent site mutations); Y537S: F-AAGAACGTGGTGCCCCTCTCTGACCTGCTGCTGGAGATG (SEQ ID NO: 1), R-CATCTCCAGCAGCAGGTCAGAGAGGGGCACCACGTTCTT (SEQ ID NO: 2); Y537N: F-AAGAACGTGGTGCCCCTCAATGACCTGCTGCTGGAGATG (SEQ ID NO: 3), R-CATCTCCAGCAGCAGGTCATTGAGGGGCACCACGTTCTT (SEQ ID NO: 4); Y537C: F-AAGAACGTGGTGCCCCTCTGTGACCTGCTGCTGGAGATG (SEQ ID NO: 5), R-CATCTCCAGCAGCAGGTCACAGAGGGGCACCACGTTCTT (SEQ ID NO: 6); D538G: F-AACGTGGTGCCCCTCTATGGCCTGCTGCTGGAGATGCTG (SEQ ID NO: 7), R-CAGCATCTCCAGCAGCAGGCCATAGAGGGGCACCACGTT (SEQ ID NO: 8). WT and mutant ESR1 cDNAs were cloned into the designation lentiviral vector pLenti6.3/V5-Dest (Invitrogen, Cat #V533-06). To make lentivirus, DNAs (WT and mutant ESR1) were co-transfected with packaging plasmids into Lenti-X 293T cells using TransIT (Mirus, Cat #MIR 2700). 48 h post-transfection, virus containing media was filtered and added to MCF7 cells in the presence of 8 µg/ml polybrene overnight. Two days following infection, cells were placed under selection with 10 μg/ml blasticidin for 2 weeks for stable expression.
# (§3) MCF7-WT and -Y537S cells were seeded at 1500 cells/well in black-walled 96-well plates (assay plates, Costar, Cat #3904). In parallel, cells were also seeded in a separate 96-well plate (8 wells/cell line, control plate) for which a CTG (CellTiter-Glo® Luminescent Viability Assay, Promega, Cat #G7572) was measured the following day (day 0 reading). The day 0 reading was used for the GI50 calculation at the termination of the experiment. The day following seeding, compounds were added to assay plates. Briefly, a 1:4 serial dilution was prepared in DMSO at 200× final concentration for a total of 10 concentrations (9 dilutions containing compound and one is DMSO only). Serially diluted compounds were pipetted into medium to prepare a compound-medium mix at 10× final concentration. 10 μl of compound-medium mix was added to MCF7-WT and -Y537S cells at 3 wells/concentration (triplicate for each concentration). On day 3, media/compound was removed and replaced with fresh media/compound as described above. On day 6, CTG was measured and compared to day 0 readings from control plate to assess GI50.
# [2] = tested on: MCF7-Y537S cells (MCF7 ER-alpha Y537S mutant); assay: In vitro proliferation (viability) assay, CellTiter-Glo, MCF7-Y537S cells; format: cell-based; conditions: Homo sapiens; MCF7-Y537S cells, 6 days, CTG vs day 0; mean ± SD-type spread (n); read-out: GI50 MUT (Y537S)
# Method: as §1, §2, §3
Compound,GI50 [1] [nM],GI50 [2] [nM]
"CC/C(=C(/c1ccc(OCCNC/C=C/C(=O)N(C)C)cc1)c1ccc2[nH]nc(F)c2c1)c1ccccc1 [Compound 2, (E)-4-((2-(4-((E)-1-(3-fluoro-1H-indazol-5-yl)-2-phenylbut-1-en-1-yl)phenoxy)ethyl)amino)-N,N-dimethylbut-2-enamide]",5.56 ± 2.84,64.8 ± 37.2
"CC/C(=C(/c1ccc(OCCNC/C=C/C(=O)N2CCOCC2)cc1)c1ccc2[nH]ncc2c1)c1ccccc1 [Compound 15, (E)-4-((2-(4-((E)-1-(1H-indazol-5-yl)-2-phenylbut-1-en-1-yl)phenoxy)ethyl)amino)-1-morpholinobut-2-en-1-one]",1.84 ± 1.09,25.5 ± 13.8
"O=C(/C=C/CNCCOc1ccc(/C(=C(\c2ccccc2)C2CCC2)c2ccc3[nH]ncc3c2)cc1)N1CCOCC1 [Compound 23, (E)-4-((2-(4-((E)-2-cyclobutyl-1-(1H-indazol-5-yl)-2-phenylvinyl)phenoxy)ethyl)amino)-1-morpholinobut-2-en-1-one]",1.52 ± 1.05,24.2 ± 6.57
"CC/C(=C(/c1ccc(OCCNC/C=C/C(=O)N(C)C)cc1)c1ccc2[nH]ncc2c1)c1ccccc1C(C)C [Compound 34, (E)-4-((2-(4-((E)-1-(1H-indazol-5-yl)-2-(2-isopropylphenyl)but-1-en-1-yl)phenoxy)ethyl)amino)-N,N-dimethylbut-2-enamide]",10.5,93.6
"CC/C(=C(/c1ccc(OCCNC/C=C/C(=O)N(C)CCO)cc1)c1ccc2[nH]ncc2c1)c1ccccc1 [Compound 18, (E)-4-((2-(4-((E)-1-(1H-indazol-5-yl)-2-phenylbut-1-en-1-yl)phenoxy)ethyl)amino)-N-(2-hydroxyethyl)-N-methylbut-2-enamide]",1.63 ± 1.41,21.4 ± 15
"O=C(/C=C/CNCCOc1ccc(/C(=C(\c2ccccc2)C2CCC2)c2ccc3[nH]nc(F)c3c2)cc1)N1CCC1 [Compound 40, (E)-1-(azetidin-1-yl)-4-((2-(4-((E)-2-cyclobutyl-1-(3-fluoro-1H-indazol-5-yl)-2-phenylvinyl)phenoxy)ethyl)amino)but-2-en-1-one]",7.52 ± 4.52,94.5 ± 20.8
"CC/C(=C(/c1ccc(OCCNC/C=C/C(=O)N(C)CC)cc1)c1ccc2[nH]ncc2c1)c1ccccc1 [Compound 16, (E)-4-((2-(4-((E)-1-(1H-indazol-5-yl)-2-phenylbut-1-en-1-yl)phenoxy)ethyl)amino)-N-ethyl-N-methylbut-2-enamide]",1.66,21.9
"CC/C(=C(/c1ccc(OCCNC/C=C/C(=O)N(C)C)cc1)c1ccc2[nH]nc(F)c2c1)c1cccnc1 [Compound 51, (E)-4-((2-(4-((E)-1-(3-fluoro-1H-indazol-5-yl)-2-(pyridin-3-yl)but-1-en-1-yl)phenoxy)ethyl)amino)-N,N-dimethylbut-2-enamide]",20.9,347
"O=C(/C=C/CNCCOc1ccc(/C(=C(\c2ccccc2)C2CCC2)c2ccc3[nH]ncc3c2)cc1)N1CCC1 [Compound 39, (E)-1-(azetidin-1-yl)-4-((2-(4-((E)-2-cyclobutyl-1-(1H-indazol-5-yl)-2-phenylvinyl)phenoxy)ethyl)amino)but-2-en-1-one]",1.79 ± 0.47,31.8 ± 4.85
"CC/C(=C(/c1cnc(OCCNC/C=C/C(=O)N(C)C)nc1)c1ccc2[nH]ncc2c1)c1ccccc1 [Compound 38, (E)-4-((2-((5-((Z)-1-(1H-indazol-5-yl)-2-phenylbut-1-en-1-yl)pyrimidin-2-yl)oxy)ethyl)amino)-N,N-dimethylbut-2-enamide]",8.23 ± 5.32,159 ± 128
"CC/C(=C(/c1ccc(OCCNC/C=C/C(=O)N(C)C)cc1)c1ccc2[nH]ncc2c1F)c1ccccc1 [Compound 4, (E)-4-((2-(4-((E)-1-(4-fluoro-1H-indazol-5-yl)-2-phenylbut-1-en-1-yl)phenoxy)ethyl)amino)-N,N-dimethylbut-2-enamide]",4.55 ± 3.34,36.3 ± 16
"C/C(=C(/c1ccc(OCCNC/C=C/C(=O)N(C)C)cc1)c1ccc2[nH]ncc2c1)c1ccccc1 [Compound 54, (E)-4-((2-(4-((E)-1-(1H-indazol-5-yl)-2-phenylprop-1-en-1-yl)phenoxy)ethyl)amino)-N,N-dimethylbut-2-enamide]",7.97 ± 1.65,160 ± 39.6
"CC/C(=C(/c1ccc(OCCNC/C=C/C(=O)N(C)C)cc1)c1ccc2[nH]ncc2c1)c1cc(F)cc(F)c1 [Compound 5, (E)-4-((2-(4-((E)-2-(3,5-difluorophenyl)-1-(1H-indazol-5-yl)but-1-en-1-yl)phenoxy)ethyl)amino)-N,N-dimethylbut-2-enamide]",8.44 ± 3.87,81.4 ± 45.8
"CC/C(=C(/c1ccc(OCCNC/C=C/C(=O)N(C)CCO)cc1)c1ccc2[nH]nc(F)c2c1)c1ccc(F)cc1Cl [Compound 28, (E)-4-((2-(4-((E)-2-(2-chloro-4-fluorophenyl)-1-(3-fluoro-1H-indazol-5-yl)but-1-en-1-yl)phenoxy)ethyl)amino)-N-(2-hydroxyethyl)-N-methylbut-2-enamide]",3.16,69.7

# Further lines, results first:
GI50 [1] [nM],GI50 [2] [nM],Compound
10.5,193,"CC/C(=C(/c1ccc(OCCNC/C=C/C(=O)N(C)C)cc1)c1ccc2[nH]nc(F)c2c1)c1ccccn1 [Compound 67, (E)-4-((2-(4-((E)-1-(3-fluoro-1H-indazol-5-yl)-2-(pyridin-2-yl)but-1-en-1-yl)phenoxy)ethyl)amino)-N,N-dimethylbut-2-enamide]"
2.8,35,"CC/C(=C(/c1ccc(OCCNC(C)/C=C/C(=O)N(C)C)cc1)c1ccc2[nH]ncc2c1)c1ccccc1 (stereo not shown) [Compound 89, (E)-4-((2-(4-((E)-1-(1H-indazol-5-yl)-2-phenylbut-1-en-1-yl)phenoxy)ethyl)amino)-N,N-dimethylpent-2-enamide]"
0.3,1.3,"CN(C)C(=O)/C=C/CNCCOc1ccc(/C(=C(/CC(F)(F)F)c2ccncc2F)c2ccc3[nH]nc(F)c3c2)cn1 [Compound 62, (E)-N,N-dimethyl-4-((2-((5-((Z)-4,4,4-trifluoro-1-(3-fluoro-1H-indazol-5-yl)-2-(3-fluoropyridin-4-yl)but-1-en-1-yl)pyridin-2-yl)oxy)ethyl)amino)but-2-enamide]"
4.65 ± 2.9,93.7 ± 6.3,"CC(C)/C(=C(/c1ccc(OCCNC/C=C/C(=O)N(C)C)cc1)c1ccc2[nH]nc(F)c2c1)c1ccccc1 [Compound 82, (E)-4-((2-(4-((E)-1-(3-fluoro-1H-indazol-5-yl)-3-methyl-2-phenylbut-1-en-1-yl)phenoxy)ethyl)amino)-N,N-dimethylbut-2-enamide]"
1.3 ± 0.4,17.9 ± 4.5,"CC/C(=C(/c1ccc(OCCNC/C=C/C(=O)N(C)C)nc1)c1ccc2[nH]nc(F)c2c1)c1ccc(F)cc1Cl [Compound 58, (E)-4-((2-((5-((Z)-2-(2-chloro-4-fluorophenyl)-1-(3-fluoro-1H-indazol-5-yl)but-1-en-1-yl)pyridin-2-yl)oxy)ethyl)amino)-N,N-dimethylbut-2-enamide]"
0.33 ± 0.18,15.2 ± 3.7,"CN(C)C(=O)/C=C/CNCCOc1ccc(/C(=C(/CC(F)(F)F)c2ccc(F)cc2Cl)c2ccc3[nH]nc(F)c3c2)cn1 [Compound 59, (E)-4-((2-((5-((Z)-2-(2-chloro-4-fluorophenyl)-4,4,4-trifluoro-1-(3-fluoro-1H-indazol-5-yl)but-1-en-1-yl)pyridin-2-yl)oxy)ethyl)amino)-N,N-dimethylbut-2-enamide]"
